In PMC7400623, “Effect of lysine side chain length on histone lysine acetyltransferase catalysis” (Scientific Reports, 2020):

Legend:
MOF (KAT8) = molecular target: T1, MOF (KAT8) (Homo sapiens, UniProt Q9H7Z6); test: MALDI-TOF MS enzymatic assay of MOF-catalyzed acetylation of histone peptides; format: biochemical; conditions: 100 µM peptide, 300 µM AcCoA, pH 8.0, 37 °C; for acetylation (conversion to acetylated peptide) by MOF: after 3 h, 2 µM MOF, 50 mM Hepes, 0.1 mM EDTA, 1 mM DTT, MALDI-TOF MS
T1 construct: Human MOF catalytic domain (residues 125–458 in pET19b); His-tag; made in house; host or cells: E. coli BL21(DE3)
T1 sequence (Q9H7Z6 125-458): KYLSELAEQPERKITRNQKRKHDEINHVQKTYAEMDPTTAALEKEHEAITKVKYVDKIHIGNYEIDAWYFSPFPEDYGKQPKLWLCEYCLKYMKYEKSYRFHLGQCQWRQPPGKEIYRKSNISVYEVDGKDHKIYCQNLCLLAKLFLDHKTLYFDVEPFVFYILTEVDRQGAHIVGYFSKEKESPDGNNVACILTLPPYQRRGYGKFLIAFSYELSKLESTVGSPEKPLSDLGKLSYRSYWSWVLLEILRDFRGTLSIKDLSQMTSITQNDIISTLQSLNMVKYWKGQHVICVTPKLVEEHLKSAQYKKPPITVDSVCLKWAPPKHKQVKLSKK
Method: MALDI-TOF MS enzymatic assays were carried out to investigate KAT-catalyzed acetylation of synthetic histone peptides. The enzymatic activity of the recombinantly expressed human KATs was measured at different time points (2 µM KAT enzyme, 100 µM histone peptide, 300 µM AcCoA, buffer: 50 mM Hepes, 0.1 mM EDTA, 1 mM DTT, pH = 8.0, 37 °C, hereafter used as standard conditions) (Fig. 3b,c). […] It is noteworthy that diacetylation of histone peptides was not detected under our assay conditions, due to preacetylation of the secondary site on H3. […] As further control, H4 and H3 peptides containing stereochemically inverted D-lysine were synthesized.
The KAT enzymatic activity towards histone peptides was measured at different time points under standard conditions (2 µM KAT enzyme, 100 µM peptide, 300 µM AcCoA) in the reaction buffer (50 mM HEPES, 0.1 mM EDTA, 1 mM DTT, pH = 8.0). The reactions were carried out in a final volume of 50 µL and shaken up in a Thermomixer C at 750 rpm, at 37 °C. The reactions were quenched by the addition of TFA 10% in MilliQ water at different time points. All reactions were aliquoted and mixed 1:2 with a solution of α-Cyano-4-hydroxycinnamic acid (CHCCA) in 1:1 MQ and ACN (0.1% TFA) and loaded onto an MTP 384 polished steel target to be analyzed by a UltrafleXtreme-II tandem mass spectrometer (Bruker, Billerica, MA, USA).

MOF catalytic domain = molecular target: T2, MOF catalytic domain (Homo sapiens, UniProt Q9H7Z6); test: MALDI-TOF MS kinetics assay, MOF; format: biochemical; conditions: for kcat^app / Km: MOF catalytic domain 570 nM (2 µM for unnatural analogs), peptide 1,050–0 µM, pH 7.4, 37 °C, MALDI-TOF MS, duplicates, value ± SD, SD; for kcat^app: AcCoA 100 µM (saturating), 50 mM HEPES, 0.1 mM EDTA, 0.01% TRITON-X; for Km: AcCoA 100 µM, read-out: Km^app; for kcat^app/Km^app: same kinetics conditions
T2 construct: Human MOF catalytic domain (residues 125–458 in pET19b); His-tag; made in house; host or cells: E. coli BL21(DE3)
T2 sequence (Q9H7Z6 125-458): T1 sequence (Q9H7Z6 125-458)
Excerpt: Kinetic analysis of bi-substrate enzymes, such as KATs, is reckoned to be challenging and dependent on many factors. Firstly, given the nature of these enzymes, the binding of one of the two substrates directly influences the binding of the other (with a direct effect on the Michaelis–Menten parameter Km). […] Therefore, to obtain data that would allow us to directly compare the catalytic properties of the selected KATs towards our selection of histone peptides bearing lysine analogs with longer side chains, two strategies to standardize our kinetic evaluation were taken: i) all the experiments were carried out with the same saturating concentrations of AcCoA and ii) only KATs catalytic domains were employed in the study. […] In contrast, kcat values decreased substantially with an increase of the side chain length, both in the K14 and K9 peptide series, and for both PCAF and GCN5 (Table 1).
Histone peptides kinetics evaluation was carried out with a MALDI-TOF MS assay under steady-state conditions[57],[58]. Histone peptides (1,050–0 µM) were incubated with AcCoA (100 µM) and the reactions were started by the addition of the enzyme (MOF 570 nM, PCAF and GCN5 50 nM) in a final volume of 20 µL in kinetic buffer (50 mM HEPES, 0.1 mM EDTA, 0.01% TRITON-X, pH = 7.4). For histone peptides bearing unnatural lysine analogs, higher concentration of enzymes was used (MOF, PCAF and GCN5 2 µM). […] AcCoA stock solutions in milli-Q water were calibrated with a NanoDrop 2000 spectrophotometer (Thermo Scientific, Waltham, MA, USA), employing the characteristic molar extinction coefficient ε260nm = 16,400 M^−1 cm^−1. Reactions were incubated at 37 °C, shaken at 750 rpm and quenched with TFA 10% in milli-Q water at different time points, within linear production of acetylated peptides extrapolated from time-course plots. All reactions were aliquoted and mixed 1:2 with a solution of α-cyano-4-hydroxycinnamic acid (CHCCA) in 1:1 MQ and ACN (0.1% TFA) and loaded onto MTP 384 polished steel target to be analyzed by UltrafleXtreme-II tandem mass spectrometer (Bruker). The amount of acetylated peptide was calculated by integration of the product peak area and divided it by the amount of unacetylated peptide, taking in account all the ionic species, at any concentration points using the FlexAnalysis software. Kinetic values were extrapolated by fitting V0 values (µM of produced peptide per minutes) and histone peptide concentrations to the Michaelis–Menten equation using the GraphPad Prism 5 software. Kinetic experiments were carried out in duplicates and final values are reported as value ± SD.

Sequence	time to full acetylation by MOF (MOF (KAT8); standard conditions: 2 µM MOF)	kcat^app (MOF catalytic domain)	Km (MOF catalytic domain)	kcat^app/Km^app (MOF catalytic domain; MOF)	acetylation (conversion to acetylated peptide) by MOF (MOF (KAT8))	Km lower than that of H4hK16 (MOF catalytic domain; MOF)
GGA K16 RHRKVLRDNIQ [H4K16, reference compound]	30 min	0.385 ± 0.0167 s⁻¹	593 ± 86 µM	648 M⁻¹ s⁻¹	–	–
GGA hK 16 RHRKVLRDNIQ [H4hK16, 15-mer histone H4 peptide with hLys at position 16]	–	0.0045 ± 0.0017 s⁻¹	344 ± 99 µM	13 M⁻¹ s⁻¹	95%	–
GGA h2K16 RHRKVLRDNIQ [H4h2K16, 15-mer histone H4 peptide with h2K at position 16]	–	0.001 ± 0.00017 s⁻¹	82.2 ± 15 µM	12 M⁻¹ s⁻¹	90%	fourfold lower
